We go through 21 compounds from patent US11524966B1 (Valo Early Discovery, Inc., priority 2017, dated 2022).

The assay deals with T1, USP25 (USP25-His6, Boston Biochem E-546) (Homo sapiens, UniProt Q9UHP3).
T1 construct: His6; purchased Boston Biochem E-546
T1 sequence (Q9UHP3 1-1055): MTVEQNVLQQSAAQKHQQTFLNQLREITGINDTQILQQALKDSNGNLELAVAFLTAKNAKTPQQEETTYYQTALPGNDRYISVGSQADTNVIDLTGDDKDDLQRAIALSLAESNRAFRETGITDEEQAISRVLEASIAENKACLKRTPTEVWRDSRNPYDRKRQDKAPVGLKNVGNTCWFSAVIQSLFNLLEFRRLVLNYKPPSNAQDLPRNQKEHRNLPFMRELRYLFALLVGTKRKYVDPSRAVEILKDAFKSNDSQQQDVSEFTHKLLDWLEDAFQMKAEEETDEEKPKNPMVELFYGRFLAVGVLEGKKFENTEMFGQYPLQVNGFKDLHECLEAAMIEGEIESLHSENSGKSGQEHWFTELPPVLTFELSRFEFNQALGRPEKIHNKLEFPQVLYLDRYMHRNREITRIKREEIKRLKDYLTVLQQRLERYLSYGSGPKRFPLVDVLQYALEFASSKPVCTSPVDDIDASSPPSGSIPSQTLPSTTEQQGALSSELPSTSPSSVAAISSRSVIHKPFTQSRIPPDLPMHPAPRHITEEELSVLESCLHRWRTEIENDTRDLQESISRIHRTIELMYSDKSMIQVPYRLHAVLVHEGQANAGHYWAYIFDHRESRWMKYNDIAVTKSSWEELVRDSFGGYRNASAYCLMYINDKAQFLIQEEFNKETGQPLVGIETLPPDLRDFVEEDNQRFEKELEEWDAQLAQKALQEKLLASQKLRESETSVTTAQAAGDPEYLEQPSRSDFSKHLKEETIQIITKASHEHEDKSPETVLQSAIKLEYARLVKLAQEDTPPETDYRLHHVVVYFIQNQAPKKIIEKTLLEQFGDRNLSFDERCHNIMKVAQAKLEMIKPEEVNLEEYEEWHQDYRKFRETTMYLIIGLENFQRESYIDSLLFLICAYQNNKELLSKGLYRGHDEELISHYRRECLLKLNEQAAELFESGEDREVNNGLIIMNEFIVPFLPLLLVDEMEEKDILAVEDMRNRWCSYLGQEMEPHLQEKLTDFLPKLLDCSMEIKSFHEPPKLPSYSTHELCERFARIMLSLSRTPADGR
Kind of assay: Ubiquitin-Rhodamine 110 Assay for USP25 Activity, Example A-2. The format is biochemical. Conditions: Ubiquitin-Rhodamine 110 assay, Example A-2; read-out: USP25 A-2 IC50 range. The gist of the method:
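Inhibition is quantified as IC50 by 4-parameter fit of fluorescence (485/535 nm) from Ub-Rh110 hydrolysis. Enzyme USP25-His6 at 75 pM with 30 min compound preincubation, then 25 nM substrate for 45 min at room temperature in pH 8.0 Tris buffer containing BME.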

Structures are written as SMILES. Bounds are passed on as bounds.

The term IC50 denotes the concentration that gives 50% inhibition. As to `CO[C@H]1CN(c2cc3c(cc2F)C[C@@H](NC(=O)c2sc4nc(C)ccc4c2N)CO3)C[C@@H]1N` [Example 94, 3-amino-N-[(3R)-7-[(3S,4S)-3-amino-4-methoxypyrrolidin-1-yl]-6-fluoro-3,4-dihydro-2H-1-benzopyran-3-yl]-6-methylthieno[2,3-b]pyridine-2-carboxamide], the IC50 is 0.2 to 2 µM.

`Cc1ccc2c(N)c(C(=O)N[C@H]3COc4c(C#N)c(N5CC6CCC(C5)N6)cc(F)c4C3)sc2n1` [Example 95, 3-amino-N-[(3R)-8-cyano-7-{3,8-diazabicyclo[3.2.1]octan-3-yl}-5-fluoro-3,4-dihydro-2H-1-benzopyran-3-yl]-6-methylthieno[2,3-b]pyridine-2-carboxamide]: the IC50 lay in the range of 0.2 to 2 µM.

For the compound `Cc1ccc2c(N)c(C(=O)N[C@H]3COc4c(C#N)c(N5CC6CNCC(C5)O6)cc(F)c4C3)sc2n1` [Example 96, 3-amino-N-[(3R)-8-cyano-5-fluoro-7-{9-oxa-3,7-diazabicyclo[3.3.1]nonan-3-yl}-3,4-dihydro-2H-1-benzopyran-3-yl]-6-methylthieno[2,3-b]pyridine-2-carboxamide], the half-maximal inhibitory concentration (IC50) is 0.05 to 0.2 µM.

On to `Cc1cnc2c(N)c(C(=O)N[C@H]3COc4cc(N5CC6CCC(C5)N6)c(F)c(F)c4C3)sc2n1` [Example 97, 7-amino-N-[(3R)-7-{3,8-diazabicyclo[3.2.1]octan-3-yl]-5,6-difluoro-3,4-dihydro-2H-1-benzopyran-3-yl]-3-methylthieno[2,3-b]pyrazine-6-carboxamide], for which the IC50 is 0.001 to 0.05 µM.

With `Cc1nc2sc(C(=O)N[C@H]3COc4c(F)c(N5CC6CCC(C5)N6)cc(F)c4C3)c(N)c2s1` [Example 98, 6-amino-N-[(3R)-7-{3,8-diazabicyclo[3.2.1]octan-3-yl}-5,8-difluoro-3,4-dihydro-2H-1-benzopyran-3-yl]-2-methylthieno[2,3-d][1, 3]thiazole-5-carboxamide], the IC50 lay in the range of 0.05 to 0.2 µM.

Turning to `Cc1ccc2c(N)c(C(=O)N[C@H]3CCc4c(ccc(N5CC6CNCC(C5)O6)c4F)C3)sc2n1` [Example 99, 3-amino-N-[(2S)-5-fluoro-6-{9-oxa-3,7-diazabicyclo[3.3.1]nonan-3-yl}-1,2,3,4-tetrahydronaphthalen-2-yl]-6-methylthieno[2,3-b]pyridine-2-carboxamide], the IC50 was 0.001 to 0.05 µM.

In the case of `Cc1ccc2c(N)c(C(=O)N[C@@H]3CCc4c(ccc(N5CC6CNCC(C5)O6)c4F)C3)sc2n1` [Example 100, 3-amino-N-[(2R)-5-fluoro-6-{9-oxa-3,7-diazabicyclo[3.3.1]nonan-3-yl}-1,2,3,4-tetrahydronaphthalen-2-yl]-6-methylthieno[2,3-b]pyridine-2-carboxamide], the half-inhibitory concentration (IC50) was > 2 µM.

Consider `Cc1ccc2c(N)c(C(=O)N[C@H]3CCc4cc(N5CC6CNCC(C5)O6)c(F)cc4C3)sc2n1` [Example 101, 3-amino-N-[(2S)-7-fluoro-6-{9-oxa-3,7-diazabicyclo[3.3.1]nonan-3-yl}-1,2,3,4-tetrahydronaphthalen-2-yl]-6-methylthieno[2,3-b]pyridine-2-carboxamide], for which the IC50 lay within 0.2 to 2 µM.

With `Cc1ccc2c(N)c(C(=O)N[C@H]3CCc4c(ccc(N5CC6CNCC(C5)O6)c4C#N)C3)sc2n1` [Example 102, 3-amino-N-[(2S)-5-cyano-6-{9-oxa-3,7-diazabicyclo[3.3.1]nonan-3-yl}-1,2,3,4-tetrahydronaphthalen-2-yl]-6-methylthieno[2,3-b]pyridine-2-carboxamide], the IC50 lay in the range of 0.05 to 0.2 µM.

With `Cc1ccc2c(N)c(C(=O)N[C@H]3COc4c(ccc(N5CC6CCC(C5)N6)c4F)C3)sc2n1` [Example 103, 3-amino-N-[(3R)-7-{3,8-diazabicyclo[3.2.1]octan-3-yl}-8-fluoro-3,4-dihydro-2H-1-benzopyran-3-yl]-6-methylthieno[2,3-b]pyridine-2-carboxamide], the IC50 lay in the range of 0.05 to 0.2 µM.

`Cc1ccc2c(N)c(C(=O)N[C@H]3COc4cc(N5CC6CCC(C5)N6)c(F)cc4C3)sc2n1` [Example 104, 3-amino-N-[(3R)-7-{3,8-diazabicyclo[3.2.1]octan-3-yl]-6-fluoro-3,4-dihydro-2H-1-benzopyran-3-yl]-6-methylthieno[2,3-b]pyridine-2-carboxamide]: the IC50 was in the range of 0.001 to 0.05 µM.

`Cc1ccc2c(N)c(C(=O)N[C@H]3COc4c(ccc(N5CC6CNCC(C5)O6)c4F)C3)sc2n1` [Example 105, 3-amino-N-[(3R)-8-fluoro-7-{9-oxa-3,7-diazabicyclo[3.3.1]nonan-3-yl}-3,4-dihydro-2H-1-benzopyran-3-yl]-6-methylthieno[2,3-b]pyridine-2-carboxamide]: the IC50 lay in the range of 0.001 to 0.05 µM.

Turning to `Cc1ccc2c(N)c(C(=O)N[C@H]3COc4cc(N5CC6CNCC(C5)O6)c(F)cc4C3)sc2n1` [Example 106, 3-amino-N-[(3R)-6-fluoro-7-{9-oxa-3,7-diazabicyclo[3.3.1]nonan-3-yl}-3,4-dihydro-2H-1-benzopyran-3-yl]-6-methylthieno[2,3-b]pyridine-2-carboxamide], the IC50 was 0.05 to 0.2 µM.

For the compound `Cc1cnc2c(N)c(C(=O)N[C@H]3COc4c(F)c(N5CC6CCC(C5)N6)cc(F)c4C3)sc2n1` [Example 107, 7-amino-N-[(3R)-7-{3,8-diazabicyclo[3.2.1]octan-3-yl}-5,8-difluoro-3,4-dihydro-2H-1-benzopyran-3-yl]-3-methylthieno[2,3-b]pyrazine-6-carboxamide], the half-maximal inhibitory concentration (IC50) is 0.001 to 0.05 µM.

With `Cc1nc2sc(C(=O)N[C@H]3COc4cc(N5CC6CCC(C5)N6)c(F)c(F)c4C3)c(N)c2s1` [Example 108, 6-amino-N-[(3R)-7-{3,8-diazabicyclo[3.2.1]octan-3-yl}-5,6-difluoro-3,4-dihydro-2H-1-benzopyran-3-yl]-2-methylthieno[2,3-d][1,3]thiazole-5-carboxamide], the IC50 lay in the range of 0.05 to 0.2 µM.

Regarding `Cc1ccc2c(N)c(C(=O)N[C@H]3CCc4cc(N5CC6CNCC(C5)O6)c(C#N)cc4C3)sc2n1` [Example 109, 3-amino-N-[(2S)-7-cyano-6-{9-oxa-3,7-diazabicyclo[3.3.1]nonan-3-yl}-1,2,3,4-tetrahydronaphthalen-2-yl]-6-methylthieno[2,3-b]pyridine-2-carboxamide], the half-inhibitory concentration (IC50) fell in the range of 0.2 to 2 µM.

Consider `Cc1ccc2c(N)c(C(=O)N[C@H]3COc4c(F)c(N5C[C@@H]6C[C@H]5CN6)cc(F)c4C3)sc2n1` [Example 110, 3-amino-N-[(3R)-7-[(1S,4S)-2,5-diazabicyclo[2.2.1]heptan-2-yl]-5,8-difluoro-3,4-dihydro-2H-1-benzopyran-3-yl]-6-methylthieno[2,3-b]pyridine-2-carboxamide], for which the IC50 lay within 0.05 to 0.2 µM.

`Cc1ccc2c(N)c(C(=O)N[C@H]3COc4c(F)c(N5C[C@H]6C[C@@H]5CN6)cc(F)c4C3)sc2n1` [Example 111, 3-amino-N-[(3R)-7-[(1R,4R)-2,5-diazabicyclo[2.2.1]heptan-2-yl]-5,8-difluoro-3,4-dihydro-2H-1-benzopyran-3-yl]-6-methylthieno[2,3-b]pyridine-2-carboxamide]: the IC50 was 0.05 to 0.2 µM.

`Cc1ccc2c(N)c(C(=O)N[C@H]3COc4cc(N5C[C@@H]6C[C@H]5CN6)c(F)c(F)c4C3)sc2n1` [Example 112, 3-amino-N-[(3R)-7-[(1S,4S)-2,5-diazabicyclo[2.2.1]heptan-2-yl]-5,6-difluoro-3,4-dihydro-2H-1-benzopyran-3-yl]-6-methylthieno[2,3-b]pyridine-2-carboxamide]: the IC50 fell in the range of 0.2 to 2 µM.

As for `Cc1ccc2c(N)c(C(=O)N[C@H]3COc4nc(N5CC6CNCC(C5)C6(F)F)ccc4C3)sc2n1` [Example 113, 3-amino-N-[(3R)-7-{9 9-difluoro-3,7-diazabicyclo[3.3.1]nonan-3-yl}-2H b,3H,4H-pyrano[2,3-b]pyridin-3-yl]-6-methylthieno[2,3-b]pyridine-2-carboxamide], the IC50 fell in the range of 0.2 to 2 µM.

`CCO[C@H]1CN(c2ccc3c(c2)OC[C@H](NC(=O)c2sc4nc(C)ccc4c2N)C3)C[C@@H]1N` [Example 115, 3-amino-N-[(3R)-7-[(3S,4S)-3-amino-4-ethoxypyrrolidin-1-yl]-3,4-dihydro-2H-1-benzopyran-3-yl]-6-methylthieno[2,3-b]pyridine-2-carboxamide]: the IC50 lay within 0.2 to 2 µM.
